Where two headings read alike, the source gives them in different places.
How the values were obtained:
human T-cells = assay: Suppression of Human T-Cell Proliferation Assay (PHA-stimulated, [3H]-thymidine incorporation); format: cell-based; details: for IC50: inhibition of [3H]-thymidine incorporation of PHA-stimulated purified human T-cells, 72 hours
Text: Inhibition of mitogen-induced T-cell proliferation can be used to profile immunosuppressive activity of test compounds. In the description of the assay which follows, mitogen-induced T-cell proliferation was used to test the inhibitory potencies of select compounds of the present invention.
In an assay similar to that described by Bradley in Mishell et al. (Eds.), 1980, Selected Methods in Cellular Immunology, pp 156-161, W. H. Freeman & Co., San Fransisco, Calif., T-cells were stimulated by incubation with phytohemagglutinin (PHA) which binds to cell surface molecules, including the T-cell receptor. This stimulation results in proliferation which can be measured by incorporation of [^3 H]-thymidine into cellular DNA.
Fresh LeukoPaks were obtained from the New York Blood Center, New York, N.Y. The cells, including erythrocytes and leukocytes, were diluted with Hank's Balanced Salt Solution (HBSS) (GIBCO, Grand Island, N.Y.) and layered over Lymphoprep (Nycomed Pharma AS, Oslo, Norway) in sterile 50 ml conical centrifuge tubes. Lymphocytes were isolated at the Hank's/Nycomed interface after centrifugation at 2000×g, 4° C. for 15 min. The lymphocytes were washed with Minimal Essential Medium (GIBCO) containing 2% fetal bovine serum (FBS) (Sigma Chemical Co., St. Louis, Mo.), 1% HEPES buffer (GIBCO) and 1% Penicillin-Stretomycin solution (GIBCO).
T-cells were further purified essentially by sheep erythrocyte (SRBC) rosetting as described by Morimoto et al., 1983, J. Immunol. 130:157. The isolated lymphocytes were adjusted to 2×10^7 cells/ml and 5 ml aliquots of the cell suspension were incubated for 10 minutes at room temperature with 5 ml of a 5% SRBC (Cappel, Organon Technika Corp., West Chester, Pa.) suspension. The cells were gently pelleted by centrifugation at 300 rpm for 10 minutes, followed by a 1 hour incubation at room temperature to allow rosette formation. The cells were gently resuspended,layered over Lymphoprep and centrifuged for 30 minutes at 500×g. The pellet, containing rosetted T-cells and SRBC was treated with ice cold buffered ammonium chloride (GIBCO) to lyse the erythrocytes. T-cells were washed twice with HBSS.
Purified T-cells were resuspended at 2×10^6 cells/ml in complete culture medium composed of RPMI-1640 (Whittaker Bioproducts, Walkerville, Md.) with 10% FBS (Sigma), 2 mM L-glutamine (GIBCO), 1% Penicillin-Streptomycin (GIBCO) and 15 mM HEPES (GIBCO). In 96-well plates (Becton Dickinson, Lincoln Park, N.J.), 0.1 ml aliquots of T-cell suspension were mixed with 0.05 ml of 40 μg/ml PHA-M (Sigma). The compounds of this invention were dissolved in dimethylsulfoxide at 10 mM and various dilutions in complete medium were added in duplicate wells (0.05 ml/well). The plates were incubated at 37° C. in a humidified atmosphere of 5% carbon dioxide and 95% air for 72 hours.
Proliferation was assessed by measurement of [^3 H]-thymidine incorporation. During the last 6 hours of incubation, the cells were pulse labelled with 1 μCi/well of [^3 H]-thymidine (New England Nuclear, Boston, Mass.). The cells were harvested onto glass fiber paper using a plate harvester and the radioactivity incorporated into cellular DNA corresponding to individual wells was measured by standard liquid scintillation counting methods. The mean counts per minute (CPM) of replicate wells was calculated and linear regression analysis of mean CPM versus compound concentration was used to determine the concentration of compound which would inhibit [^3 H]-thymidine incorporation of T-cells by 50% (IC50).

NF-AT (FGL-5 cells) = assay: NF-AT Inhibition Assay Directed β-Galactosidase Expression; format: cell-based
Description: Inhibition of NF-AT activity is measured using FGL-5 cells. FGL-5 is a cloned line of stably transfected Jurkat T-cells that contain a construct in which three tandem copies of the NF-AT DNA binding site direct transcription of the lacZ gene, encoding β-galactosidase (Fiering et al., 1990, Genes & Development 4:1823). When these cells are stimulated with phorbol esters which activate protein kinase C and calcium ionophore to raise the intracellular calcium concentration, transcriptionally active NF-AT is produced. In T-cells, this normally leads to the expression of IL-2, T-cell growth factor. However, in FGL-5 cells NF-AT activation leads to the production of β-galactosidase which can be detected using an appropriate substrate.
This assay was performed essentially as described (Bierer et al., 1990, Proc. Natl. Acad. Sci. 87:923 1). FGL-5 cells were maintained in medium consisting of RPMI-1640 with 10% FBS, 2 mM L-glutamine, 1% Penicillin-Streptomycin and 15 mM HEPES buffer. The assays were done with exponentially growing cells whose density was not greater than 0.5 million cells/ml. The cells were resuspended to 3 million cells/ml in medium and 0.1 ml was added to wells of a 96-well plate.
The compounds of the present invention were dissolved in either ethanol or dimethylsulfoxide at 10 mM and 0.05 ml/well of various dilutions in medium were added to cells in duplicate wells. Treatment controls consisted of duplicate wells to which 0.05 ml/well of either medium, ethanol or dimethylsulfoxide was added. The ethanol and dimethyl sulfoxide were at the same concentration as was used for the compounds. Cells were incubated with compounds at room temperature for 10-15 minutes. Phorbol dibutyrate (Sigma) and Ionomycin (Calbiochem) were dissolved at 50 μg/ml and 2 mM, respectively and stored at -70° C.
FGL-5 cells were stimulated by diluting these reagents with medium to 200 ng/ml and 8 μM, respectively and adding of 0.05 ml/well. For unstimulated cell controls, 0.05 ml/well of medium was added to duplicate wells. The plates were incubated overnight (16-18 hours) at 37° C. in a humidified atmosphere of 5% CO2 and air.
β-galactosidase activity was measured as the fluorescence generated by the cleavage of 4-methyl umbelliferyl-β-D-galactoside (Sigma) at the β-galactoside bond. After overnight incubation, the cells were centrifuged at 500×g for 3 minutes in the 96-well plates and washed 3 times with PBS. The cells were then resuspended in 0.18 ml/well of reaction medium containing 100 mM sodium phosphate buffer, pH 7.0, 10 mM potassium chloride, 1 mM magnesium sulfate, 0.1% Triton X-100 (Pierce, Rockford, Ill.), and 0.5 mM 4-methylumbelliferyl-β-D-galactoside.
The fluorescence at 460 nm using 3 55 nm excitation was measured at intervals over 1-2 hours (during which fluorescence increased linearly with time) with a LS50 Luminescence Spectrometer (Perkin Elmer).
The percent inhibition by each concentration of the compounds was calculated as: [formula]
The values of the concentration of compounds required for 50% inhibition (IC50) were determined by linear regression analysis of the percent inhibition at various compound concentrations.

[1] = inhibition of β-galactosidase activity in FGL-5 cells stimulated with phorbol dibutyrate and ionomycin, read-out: IC50
[2] = stimulated FGL-5 cells, read-out: IC50 for NF-AT directed β-galactosidase expression

Row | IC50 (NF-AT (FGL-5 cells); [1]) | IC50 (NF-AT (FGL-5 cells); [2]) | Compound | IC50 (human T-cells) | inhibition of mitogen induced T-cell proliferation (human T-cells)
1 | 9 µM |  | CC[C@H](C)[C@@H](CN1CCCC[C@H]1C(=O)N[C@H](C(=O)NCc1ccccc1)[C@@H](C)OCc1ccccc1)NC(=O)OC(C)(C)C [Example 19, 1-[1-[2-(S)-[[(1,1-Dimethylethoxy)carbonyl]amino]-3-(S)-methylpentyl]-L-homoproline]-L-threonene(O-Benzyl Ether)Benzylamide] | 17 µM | 
2 | > 15 µM |  | CC[C@H](C)[C@H](NC(=O)[C@@H]1CCCCN1C[C@H](CC(C)C)NC(=O)OC(C)(C)C)C(=O)NCc1ccccc1 [Example 18, 1-[1-[2-(S)-[[(1,1-Dimethylethoxy)carbonyl]amino]-4-methylpentyl]-L-homoproline]-L-isoleucine Benzylamide] | 4 µM | 
3 | 19 µM |  | CC[C@H](C)[C@H](NC(=O)[C@@H]1CCCN1C[C@H](CC1CCCCC1)NC(=O)OC(C)(C)C)C(=O)NCc1ccccc1 [Example 16, 1-[1-[2-(S)-[[(1,1-dimethylethoxy)carbonyl]amino]-3-cyclohexylpropyl]-L-proline]-L-isoleucine Benzylamide] | 6 µM | 
4 |  | ≤ 10 µM | CC[C@H](C)[C@H](NC(=O)[C@@H]1CCCN1C[C@H](CC(C)C)NC(=O)[C@H](CC(N)=O)NC(=O)[C@H](Cc1ccccc1)NC(=O)OC(C)(C)C)C(=O)OCc1ccccc1 [Example 14, 1-[1-[2-(S)-[[1-[1-[(1,1-Dimethylethoxy)carbonyl]-L-phenylalanyl]-L-asparaginyl]amino]-4-methylpentyl]-L-proline]-L-isoleucine Phenylmethyl Ester] | < 6 µM | inhibited mitogen induced T-cell proliferation
5 | > 15 µM |  | CCC(C)[C@@H](CN1CCC[C@H]1C(=O)N[C@H](C(=O)NCc1ccccc1)[C@@H](C)CC)NC(=O)[C@H](CC1CCCCC1)NC(=O)OC(C)(C)C (stereo partly drawn) [Example 7, 1-[1-[2-(S)-[[2-(S)-[[(1,1-Dimethylethoxy)carbonyl]amino]-1-oxo-3-cyclohexylpropyl]amino]-3-methylpentyl]-L-proline]-L-isoleucine Benzylamide] | 3 µM | 
6 | 1 µM |  | CC[C@H](C)[C@H](NC(=O)[C@@H]1CCCCN1C[C@@H](NC(=O)OC(C)(C)C)[C@@H](C)CC)C(=O)NCc1ccccc1 [Example 3, 1-[1-[2-(S)-[[(1,1-Dimethylethoxy)carbonyl]amino]-3-(S)-methylpentyl]-L-homoproline]-L-isoleucine Benzylamide] | 0.7 µM | 
7 | > 15 µM |  | CCC(C)[C@@H](CN1CCC[C@H]1C(=O)N[C@H](C(=O)NCc1ccccc1)[C@@H](C)CC)NC(=O)[C@@H](N)CC1CCCCC1 (some centres unmarked) [Example 8] | 5 µM | 
8 | 29 µM | ≤ 10 µM | CC[C@H](C)[C@H](NC(=O)[C@@H]1CCCN1C[C@@H](NC(=O)OC(C)(C)C)C(C)C)C(=O)NCc1ccccc1 [Example 17, 1-[1-[2-(S)-[[(1,1-dimethylethoxy)carbonyl]amino]-3-methylbutyl]-L-proline] -L-isoleucine Benzylamide] | 14 µM | inhibited mitogen induced T-cell proliferation
9 | 13 µM |  | CC[C@H](C)[C@H](NC(=O)[C@@H]1CCCN1C[C@H](CC(C)C)NC(=O)OC(C)(C)C)C(=O)NCc1ccccc1 [Example 2, 1-[1-[2-(S)-[[(1,1-Dimethylethoxy)carbonyl]amino]-4-methylpentyl]-L-proline]-L-isoleucine Benzylamide] | 7 µM | 

Row | Compound | IC50 (NF-AT (FGL-5 cells); [1]) | IC50 (NF-AT (FGL-5 cells); [2]) | IC50 (human T-cells) | inhibition of mitogen induced T-cell proliferation (human T-cells)
10 | CC[C@H](C)[C@H](NC(=O)[C@@H]1CCCN1C[C@@H](NC(=O)OC(C)(C)C)[C@@H](C)CC)C(=O)NCc1ccccc1 [Example 6] | 8 µM |  | 6 µM | 

Reference: patent US5385918A, “Aminomethylene-peptides as immunosuppressants” (Miles Inc., priority 1993, dated 1995)
